Experimental data published in patent EP1921072A1, “1,2,3-Triazole derivatives as cannabinoid-receptor modulators” (Laboratorios del Dr. Esteve S.A., priority 2006, dated 2008).

Target: T1, CB1-Receptor (Homo sapiens, UniProt P21554)
T1 construct: purchased Receptor Biology, Inc
Assay: In-vitro determination of affinity to CB1 receptor (radioligand [3H]-CP55940 binding)
Details: compound at 10^-6 M, transfected human CB1 receptors
Experimental: The in-vitro determination of the affinity of the inventive substituted pyrazoline compounds to CB1/CB2-receptors is carried out as described in the publication of Ruth A. Ross, Heather C. Brockie et al., "Agonist-inverse agonist characterization at CB1 and CB2 cannabinoid receptors of L-759633, L759656 and AM630", British Journal of Pharmacology, 126, 665-672, (1999), whereby the transfected human CB1 and CB2 receptors of Receptor Biology, Inc. are used. The radioligand used for both receptors is [^3H]-CP55940. The respective parts of the description are hereby incorporated by reference and forms part of the present disclosure.
The affinity of the inventive substituted pyrazoline compounds to CB1/CB2 receptors was determined as described above.

T1 sequence (P21554 whole entry): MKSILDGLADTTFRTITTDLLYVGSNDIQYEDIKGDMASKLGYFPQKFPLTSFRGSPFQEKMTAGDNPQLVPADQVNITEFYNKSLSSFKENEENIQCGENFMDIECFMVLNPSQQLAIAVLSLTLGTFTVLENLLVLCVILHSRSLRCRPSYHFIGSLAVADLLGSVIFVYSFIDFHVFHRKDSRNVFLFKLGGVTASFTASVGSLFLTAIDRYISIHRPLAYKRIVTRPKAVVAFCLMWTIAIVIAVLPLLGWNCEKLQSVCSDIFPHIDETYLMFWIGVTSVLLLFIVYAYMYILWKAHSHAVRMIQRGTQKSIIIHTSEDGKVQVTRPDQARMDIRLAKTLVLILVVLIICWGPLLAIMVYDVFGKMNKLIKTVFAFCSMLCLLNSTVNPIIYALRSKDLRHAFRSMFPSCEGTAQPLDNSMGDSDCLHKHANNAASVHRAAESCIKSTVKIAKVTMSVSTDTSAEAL

In order of rising inhibition at 1 µM:
1. CCCCCn1nnc(-c2ccccc2)c1-c1ccc(Cl)cc1 [Compound 10c, 5-(p-Chlorophenyl)-1-pentyl-4-phenyl-1H-[1,2,3]triazole]  21.1%
2. CCCCCn1nc(-c2ccccc2)c(-c2ccc(Cl)cc2)n1 [Compound 10a, 4-(p-Chlorophenyl)-2-pentyl-5-phenyl-2H-[1,2,3]triazole]  22.8%
3. Clc1ccc(-c2nn(C3C4CC5CC(C4)CC3C5)nc2-c2ccccc2)cc1 (stereo not shown) [Compound 19a, 2-Adamantyl-4-(p-chlorophenyl)-5-phenyl-2H-[1,2,3]triazole]  23.1%
4. Clc1ccc(-c2nnn(Cc3ccccc3)c2-c2ccccc2)cc1 [Compound 14b, 1-Benzyl-4-(p-chlorophenyl)-5-phenyl-1H-[1,2,3]triazole]  24.6%
5. Fc1cc(Br)ccc1-c1cnn(Cc2ccccc2)n1 [Compound 15a, 2-Benzyl-4-(4-bromo-2-fluorophenyl)-2H-[1,2,3]triazole]  26.6%
6. CCCCCn1nc(-c2ccc(C)cc2)c(-c2ccc(Cl)cc2Cl)n1 [Compound 11a, 4-(2,4-Dichlorophenyl)-2-pentyl-5-p-tolyl-2H-[1,2,3]triazole]  29.8%
7. Clc1ccc(-c2nn(Cc3ccc(Br)cc3)nc2-c2ccccc2)cc1 [Compound 13a, 2-(p-Bromobenzyl)-4-(p-chlorophenyl)-5-phenyl-2H-[1,2,3]triazole]  45.6%
